The test system of one assay is TCR004. The assay is classed as cell-based, human. The following applies: Supplementary Fig. 4b, n=3.
The next assay concerns TCR121. Put plainly: Mtb proteome screen and PPE protein stimulation with aAPC, TCR121. The assay is classed as cell-based, human.

As to “CFP10: Mtb protein, cell-free expressed; TCR004 target”, in the assay with TCR004, the “response of TCR004 to cell-free expressed protein” value is given as “only responded to its target antigen CFP10”.

B1: PPE26: Mtb PPE protein, cell-free expressed (protein, UniProt Q79FK6 1-393, looked up)
PPE family protein PPE26: MDFGALPPEVNSVRMYAGPGSAPMVAAASAWNGLAAELSSAATGYETVITQLSSEGWLGPASAAMAEAVAPYVAWMSAAAAQAEQAATQARAAAAAFEAAFAATVPPPLIAANRASLMQLISTNVFGQNTSAIAAAEAQYGEMWAQDSAAMYAYAGSSASASAVTPFSTPPQIANPTAQGTQAAAVATAAGTAQSTLTEMITGLPNALQSLTSPLLQSSNGPLSWLWQILFGTPNFPTSISALLTDLQPYASFFYNTEGLPYFSIGMGNNFIQSAKTLGLIGSAAPAAVAAAGDAAKGLPGLGGMLGGGPVAAGLGNAASVGKLSVPPVWSGPLPGSVTPGAAPLPVSTVSAAPEAAPGSLLGGLPLAGAGGAGAGPRYGFRPTVMARPPFAG
On to B1, for which the “stimulation of TCR121 by whole PPE protein” value with TCR121 was “strong to modest stimulation”.
